Patent US8273774B2, “Phenoxypyridinylamide compounds” (AstraZeneca AB, priority 2008, dated 2012)
Structures can show the parent of a compound that is named as a salt.

Target: recombinant Human Phosphodiesterase B2 (PDE4B2) (Homo sapiens, UniProt Q07343)
Assay: Human Phosphodiesterase B2 Radiometric Assay
Assay type: biochemical
Settings: 0.1 μg/mL recombinant PDE4B2; preincubated at 30 C for 30 min; [3H]cyclic AMP 8 nM, stopped after 20 min; yttrium silicate SPA beads; read-out: PDE4B2 pIC50 (converted)
Protocol: Human Phosphodiesterase B2 Radiometric Assay
The assay uses recombinant Human Phosphodiesterase B2 (PDE4B2) produced in house (PrAZL0163), stored at −20° C. This assay is based on the observation that 5′AMP, the product of the reaction catalysed by PDE4, binds preferentially to yttrium silicate SPA beads (Amersham Biosciences, UK) compared to the substrate, cAMP. Compounds at the appropriate concentration were preincubated at 30 C for 30 min with an assay buffer containing 50 mM HEPES (pH 7.5), 8.3 mM MgCl2, 1.7 mM EGTA, 0.01% (w/v) Brij®35 and 0.1 μg/mL recombinant PDE4B2. The reaction was started by the addition of [3H]cyclic AMP to give a final concentration of 8 nM, and was stopped 20 min after the addition of the substrate by the addition of yttrium silicate SPA beads containing 18 mM Zn SO4. Bound […] was measured using a Topcount NXT (Packard Bioscience, UK). pIC50 values (presented in Table 2) were determined using Xlfit3 curve fitting, using model 205.

recombinant Human Phosphodiesterase B2 (PDE4B2), sequence (Q07343 1-564 isoform Q07343-2): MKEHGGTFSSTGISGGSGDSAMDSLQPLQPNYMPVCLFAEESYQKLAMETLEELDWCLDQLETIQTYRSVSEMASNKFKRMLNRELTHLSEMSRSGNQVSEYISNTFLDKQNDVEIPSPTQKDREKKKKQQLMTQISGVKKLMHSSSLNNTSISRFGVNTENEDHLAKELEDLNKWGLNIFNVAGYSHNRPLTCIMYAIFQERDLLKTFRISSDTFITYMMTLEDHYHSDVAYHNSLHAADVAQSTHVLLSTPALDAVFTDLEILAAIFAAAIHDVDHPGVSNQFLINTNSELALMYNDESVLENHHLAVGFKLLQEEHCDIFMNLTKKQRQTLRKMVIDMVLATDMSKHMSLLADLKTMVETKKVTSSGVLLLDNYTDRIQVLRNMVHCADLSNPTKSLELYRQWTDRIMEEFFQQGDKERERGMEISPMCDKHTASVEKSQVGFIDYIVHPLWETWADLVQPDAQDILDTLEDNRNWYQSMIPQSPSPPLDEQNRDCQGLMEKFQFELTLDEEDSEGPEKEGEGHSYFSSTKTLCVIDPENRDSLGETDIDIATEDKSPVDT

IC50 | Compound
0.126 nM | O=C(N[C@H]1CC[C@@H](NC(=O)c2cc(F)cnc2Oc2cccc(-c3ccc(CN4CCNCC4)cc3)c2)CC1)c1cn2c(n1)CCCC2 [Example 1, N-((1s,4s)-4-(5-fluoro-2-(4′-(piperazin-1-ylmethyl)biphenyl-3-yloxy)nicotinamido)cyclohexyl)-5,6,7,8-tetrahydroimidazo[1,2-a]pyridine-2-carboxamide]
1.26 nM | Cc1cc(CN[C@H]2CC[C@@H](NC(=O)c3cc(F)cnc3Oc3cccc(-c4ccc(O)cc4CN4CCOCC4)c3)CC2)nn1C [Example 3, N-((1s,4s)-4-((1,5-dimethyl-1H-pyrazol-3-yl)methylamino)cyclohexyl)-5-fluoro-2-(4′-hydroxy-2′-(morpholinomethyl)biphenyl-3-yloxy)nicotinamide trifluoroacetate]
63.1 nM | Cc1cc(CN(Cc2cc(C)n(C)n2)[C@H]2CC[C@@H](NC(=O)c3cc(F)cnc3Oc3cccc(-c4ccc(O)cc4CN4CCOCC4)c3)CC2)nn1C [Example 4, N-((1s,4s)-4-(bis((1,5-dimethyl-1H-pyrazol-3-yl)methyl)amino)cyclohexyl)-5-fluoro-2-(4′-hydroxy-2′-(morpholinomethyl)biphenyl-3-yloxy)nicotinamide trifluoroacetate]
5.01 nM | Cc1nc(CN[C@H]2CC[C@@H](NC(=O)c3cc(F)cnc3Oc3cccc(-c4ccc(O)cc4CN4CCOCC4)c3)CC2)cs1 [Example 5, 5-fluoro-2-(4′-hydroxy-2′-(morpholinomethyl)biphenyl-3-yloxy)-N-((1s,4s)-4-((2-methylthiazol-4-yl)methylamino)cyclohexyl)nicotinamide]
3.16 nM | Cc1cccc(CN[C@H]2CC[C@@H](NC(=O)c3cc(F)cnc3Oc3cccc(-c4ccc(O)cc4CN4CCOCC4)c3)CC2)n1 [Example 6, 5-fluoro-2-(4′-hydroxy-2′-(morpholinomethyl)biphenyl-3-yloxy)-N-((1s,4s)-4-((6-methylpyridin-2-yl)methylamino)cyclohexyl)nicotinamide]
6.31 nM | Cc1ccc(O)c(CN[C@H]2CC[C@@H](NC(=O)c3cc(F)cnc3Oc3cccc(-c4ccc(O)cc4CN4CCOCC4)c3)CC2)c1 [Example 7, 5-fluoro-2-(4′-hydroxy-2′-(morpholinomethyl)biphenyl-3-yloxy)-N-((1s,4s)-4-(2-hydroxy-5-methylbenzylamino)cyclohexyl)nicotinamide]
0.631 nM | Cc1cccc2nc(CN[C@H]3CC[C@@H](NC(=O)c4cc(F)cnc4Oc4cccc(-c5ccc(O)cc5CN5CCOCC5)c4)CC3)cn12 [Example 8, 5-fluoro-2-(4′-hydroxy-2′-(morpholinomethyl)biphenyl-3-yloxy)-N-((1s,4s)-4-((5-methylimidazo[1,2-a]pyridin-2-yl)methylamino)cyclohexyl)nicotinamide]
0.0316 nM | Cc1nc(C(=O)N[C@H]2CC[C@@H](NC(=O)c3cc(F)cnc3Oc3cccc(-c4ccc(O)cc4CN(C)C)c3)CC2)cs1 [Example 9, N-((1s,4s)-4-(2-(2′-((dimethylamino)methyl)-4′-hydroxybiphenyl-3-yloxy)-5-fluoronicotinamido)cyclohexyl)-2-methylthiazole-4-carboxamide]
0.0316 nM | Cc1cccc(C(=O)N[C@H]2CC[C@@H](NC(=O)c3cc(F)cnc3Oc3cccc(-c4ccc(O)cc4CN(C)C)c3)CC2)n1 [Example 10, N-((1s,4s)-4-(2-(2′-((dimethylamino)methyl)-4′-hydroxybiphenyl-3-yloxy)-5-fluoronicotinamido)cyclohexyl)-6-methylpicolinamide]
0.0501 nM | Cc1cccc2nc(C(=O)N[C@H]3CC[C@@H](NC(=O)c4cc(F)cnc4Oc4cccc(-c5ccc(O)cc5CN(C)C)c4)CC3)cn12 [Example 11, N-((1s,4s)-4-(2-(2′-((dimethylamino)methyl)-4′-hydroxybiphenyl-3-yloxy)-5-fluoronicotinamido)cyclohexyl)-5-methylimidazo[1,2-a]pyridine-2-carboxamide]
0.0501 nM | CN(C)Cc1cc(O)ccc1-c1cccc(Oc2ncc(F)cc2C(=O)N[C@H]2CC[C@@H](NC(=O)c3cn4cc(F)ccc4n3)CC2)c1 [Example 12, N-((1s,4s)-4-(2-(2′-((dimethylamino)methyl)-4′-hydroxybiphenyl-3-yloxy)-5-fluoronicotinamido)cyclohexyl)-6-fluoroimidazo[1,2-a]pyridine-2-carboxamide]
0.02 nM | O=C(N[C@H]1CC[C@@H](NC(=O)c2cc(F)cnc2Oc2cccc(-c3ccc(O)cc3CN3CCCOCC3)c2)CC1)c1cn2cc(F)ccc2n1 [Example 13, N-((1s,4s)-4-(2-(2′-((1,4-oxazepan-4-yl)methyl)-4′-hydroxybiphenyl-3-yloxy)-5-fluoronicotinamido)cyclohexyl)-6-fluoroimidazo[1,2-a]pyridine-2-carboxamide]
0.02 nM | Cc1cccc(C(=O)N[C@H]2CC[C@@H](NC(=O)c3cc(F)cnc3Oc3cccc(-c4ccc(O)cc4CN4CCCOCC4)c3)CC2)n1 [Example 14, N-((1s,4s)-4-(2-(2′-((1,4-oxazepan-4-yl)methyl)-4′-hydroxybiphenyl-3-yloxy)-5-fluoronicotinamido)cyclohexyl)-6-methylpicolinamide]
0.02 nM | Cc1nc(C(=O)N[C@H]2CC[C@@H](NC(=O)c3cc(F)cnc3Oc3cccc(-c4ccc(O)cc4CN4CCCOCC4)c3)CC2)cs1 [Example 15, N-((1s,4s)-4-(2-(2′-((1,4-oxazepan-4-yl)methyl)-4′-hydroxybiphenyl-3-yloxy)-5-fluoronicotinamido)cyclohexyl)-2-methylthiazole-4-carboxamide]
0.0316 nM | Cc1ccc(O)c(C(=O)N[C@H]2CC[C@@H](NC(=O)c3cc(F)cnc3Oc3cccc(-c4ccc(O)cc4CN4CCCOCC4)c3)CC2)c1 [Example 16, 2-(2′-((1,4-oxazepan-4-yl)methyl)-4′-hydroxybiphenyl-3-yloxy)-5-fluoro-N-((1s,4s)-4-(2-hydroxy-5-methylbenzamido)cyclohexyl)nicotinamide]
1.58 nM | CN(C)C1(C(=O)NC2CCC(NC(=O)c3cc(F)cnc3Oc3cccc(-c4ccc(O)cc4CN4CCOCC4)c3)CC2)CC1 (stereo not drawn) [Example 17, N-((1s,4s)-4-(1-(dimethylamino)cyclopropanecarboxamido)cyclohexyl)-5-fluoro-2-(4′-hydroxy-2′-(morpholinomethyl)biphenyl-3-yloxy)nicotinamide]
0.0158 nM | Cc1cccc2nc(C(=O)N[C@H]3CC[C@@H](NC(=O)c4cc(F)cnc4Oc4cccc(-c5ccc(O)cc5CN5CCOCC5)c4)CC3)cn12 [Example 18, N-((1s,4s)-4-(5-fluoro-2-(4′-hydroxy-2′-(morpholinomethyl)biphenyl-3-yloxy)nicotinamido)cyclohexyl)-5-methylimidazo[1,2-a]pyridine-2-carboxamide]
0.01 nM | Cc1cc(C(=O)N[C@H]2CC[C@@H](NC(=O)c3cc(F)cnc3Oc3cccc(-c4ccc(O)cc4CN4CCCOCC4)c3)CC2)nn1C [Example 19, 2-(2′-((1,4-oxazepan-4-yl)methyl)-4′-hydroxybiphenyl-3-yloxy)-N-((1s,4s)-4-(1,5-dimethyl-1H-pyrazole-3-carboxamido)cyclohexyl)-5-fluoronicotinamide]
0.0316 nM | Cc1cccc2nc(C(=O)N[C@H]3CC[C@@H](NC(=O)c4cc(F)cnc4Oc4cccc(-c5ccc(O)cc5CN5CCCOCC5)c4)CC3)cn12 [Example 20, N-((1s,4s)-4-(2-(2′-((1,4-oxazepan-4-yl)methyl)-4′-hydroxybiphenyl-3-yloxy)-5-fluoronicotinamido)cyclohexyl)-5-methylimidazo[1,2-a]pyridine-2-carboxamide]
0.0501 nM | O=C(N[C@H]1CC[C@@H](NC(=O)c2cc(F)cnc2Oc2cccc(-c3ccc(O)cc3CN3CCSCC3)c2)CC1)c1cn2cc(F)ccc2n1 [Example 21, 6-fluoro-N-((1s,4s)-4-(5-fluoro-2-(4′-hydroxy-2′-(thiomorpholinomethyl)biphenyl-3-yloxy)nicotinamido)cyclohexyl)imidazo[1,2-a]pyridine-2-carboxamide]
0.0398 nM | Cc1cc(C(=O)N[C@H]2CC[C@@H](NC(=O)c3cc(F)cnc3Oc3cccc(-c4ccc(O)cc4CN4CCSCC4)c3)CC2)nn1C [Example 22, N-((1s,4s)-4-(1,5-dimethyl-1H-pyrazole-3-carboxamido)cyclohexyl)-5-fluoro-2-(4′-hydroxy-2′-(thiomorpholinomethyl)biphenyl-3-yloxy)nicotinamide]
0.316 nM | Cc1nc(C(=O)N[C@H]2CC[C@@H](NC(=O)c3cc(F)cnc3Oc3cccc(-c4ccc(O)cc4CN4CCCCCC4)c3)CC2)cs1 [Example 23, N-((1s,4s)-4-(2-(2′-(azepan-1-ylmethyl)-4′-hydroxybiphenyl-3-yloxy)-5-fluoronicotinamido)cyclohexyl)-2-methylthiazole-4-carboxamide]
0.1 nM | Cc1nc(C(=O)N[C@H]2CC[C@@H](NC(=O)c3cc(F)cnc3Oc3cccc(-c4ccc(O)cc4CN4C[C@@H](C)O[C@@H](C)C4)c3)CC2)cs1 [Example 24, N-((1s,4s)-4-(2-(2′-(((2S,6R)-2,6-dimethylmorpholino)methyl)-4′-hydroxybiphenyl-3-yloxy)-5-fluoronicotinamido)cyclohexyl)-2-methylthiazole-4-carboxamide]
3.16 nM | Cc1nc(C(=O)N[C@H]2CC[C@@H](NC(=O)c3cc(F)cnc3Oc3cccc(-c4ccc(O)cc4CN4CCN(C(C)C)CC4)c3)CC2)cs1 [Example 25, N-((1s,4s)-4-(5-fluoro-2-(4′-hydroxy-2′-((4-isopropylpiperazin-1-yl)methyl)biphenyl-3-yloxy)nicotinamido)cyclohexyl)-2-methylthiazole-4-carboxamide]
